The subject of experiment [1] is piglets. Conditions: in vivo.
The test system of a further experiment is TNF-α. It is filed as cell-based, human.
Another experiment relates to human lymphoid cells. The experiment is classed as cell-based.
Experiment [2] deals with piglets. On the set-up: species or system Yorkshire piglets. The following applies: in vivo.
A further experiment has as its system CD69. The experiment is classed as cell-based, human.

Entries after “also recorded” stand apart in the source; their conditions may differ.

“1,2,3,9-tetrahydro-9-methyl-3-[(2-methyl-1H-imidazol-1-yl)]4H-carbazol-4-one,monohychloride, dehydrate [Zofran]”: in the experiment on piglets [1], the “BP-24 h (systolic blood pressure)” value was 50-60, the “BP-48 h (systolic blood pressure)” value is recorded as 50-65, the “Blood Gases” value is recorded as “norm” and the Temp-24 h is on record as 101-103°. Further, in the experiment on piglets [1], the Temp-48 h is reported as 100-103°; the “blood pressure levels in treated and untreated animals” value is given as “no change in the blood pressure”; the cytokine surge result is given as “blocks the cytokine surge”; the diarrhea entry is “diarrhea was stopped”. In addition, in the experiment with piglets [1], the “effectiveness as 5-HT receptor blockers against SEB-induced incapacitation” value was “effective”, the emesis entry is listed as “recovered from emesis”, the “symptoms caused by increase in serotonin levels” value is reported as “can block the symptoms” and the temperature entry is given as “slight improvement in lowering the temperature”.
For `COc1ccc2c(c[n+](C)c3c4cc5c(cc4ccc23)OCO5)c1OC` [Chelerythrine], in the experiment on TNF-α, the “effect on SEB-induced TNF-alpha production” value is given as “blocked production of TNF-α”. Besides, the “effect on SEB-induced proliferation” value with human lymphoid cells is recorded as “effectively blocked”.
Consider `O=c1c(-c2ccc(O)cc2)coc2cc(O[C@@H]3O[C@H](CO)[C@@H](O)[C@H](O)[C@H]3O)cc(O)c12` [Genistin], for which, in the experiment on piglets [2], the “animals showing this outcome” value is on record as 2/2, the “changes in toxin-induced symptoms compared to the untreated controls” value is “did not show any significant changes” and the “pathology versus SEB controls” value was “No discernable change in pathology”.
As to `CO[C@H]1[C@@H](OC)C[C@H](C)[C@@H](OC)C2=CC(=O)C=C(NC(=O)/C(C)=C/C=C\[C@H](OC)[C@@H](OC(N)=O)/C(C)=C/[C@@H]1C)C2=O` [Herbimycin], in the experiment on piglets [2], the “animals showing this outcome” value is 2/2, the “changes in toxin-induced symptoms compared to the untreated controls” value is recorded as “did not show any significant changes”, the “pathology versus SEB controls” value was “No discernable change in pathology” and the rescuing the animals entry is listed as “partially effective”.
Take `CN1C2CCCC1CC(NC(=O)c1nn(C)c3ccccc13)C2` (stereo not shown) [Kytril]: in the experiment with piglets [1], the diarrhea result is recorded as “diarrhea was stopped”, the “effectiveness as 5-HT receptor blockers against SEB-induced incapacitation” value was “effective” and the “symptoms caused by increase in serotonin levels” value is “can block the symptoms”.
Turning to `C[S+]([O-])c1ccc(-c2nc(-c3ccncc3)c(-c3ccc(F)cc3)[nH]2)cc1` (stereo not shown) [P-38 inhibitor], in the experiment on TNF-α, the “effect on induction of the TNF-α gene by SEB” value was “brought down back to control levels”. Further, the “effect on SEB-induced proliferation” value in the experiment on human lymphoid cells is listed as “clearly inhibited”. The “effect on SEB induction of CD69” value in the experiment on CD69 is “clearly blocked”.
As to `CC(=O)CCCCn1c(=O)c2c(ncn2C)n(C)c1=O` [Pentoxifylline], in the experiment with piglets [2], the “animals showing this pathology” value is on record as 3/3; the “animals survived after the treatment” value is given as 3 out of 3; the “animals with moderate pathology” value is on record as 2/3; the “animals worse-off, similar to SEB control” value was 1/3. Further, in the experiment with piglets [2], the gross pathology findings result is given as “No perirenal or mesenteric edema, though there is mesenteric lymphadenopathy”; the pathology result is reported as “Mild pathology; also recorded: Moderate pathology”; the “time post exposure to SEB up to which it works well” value is “up to 4 hours”.

Values taken from patent US20050272055A1 (priority 2000, published 2005).
